Reference: ChEMBL document CHEMBL3853329, “1,2,4-Triazolyl 5-Azaspiro[2.4]heptanes: Lead Identification and Early Lead Optimization of a New Series of Potent and Selective Dopamine D3 Receptor Antagonists” (J Med Chem, 2016)

Assays:
[1] = in vitro; conditions: rat, liver microsomes
[2] = in vitro; conditions: human, liver microsomes
[3] = in vivo; conditions: rat, po, 5 mg/kg
[4] = in vivo; conditions: rat, po, 5 mg/kg; remark: listed apart in the source
[5] = in vivo; conditions: rat
[6] = in vivo; conditions: rat, whole blood, iv, 1 mg/kg
[7] = in vivo; conditions: rat, iv, 1 mg/kg
[8] = in vivo; conditions: rat, brain
[9] = human, caco-2

Molecule Cn1c(SCCCN2CC[C@]3(C[C@@H]3c3ccc(C(F)(F)F)cc3)C2)nnc1-c1ccc(C(N)=O)cc1 has a microsomal CLint at 0.5 h, 0.5 µM [1] of 41 µL/min/mg and a microsomal CLint at 0.5 h, 0.5 µM [2] of 155 µL/min/mg.
With Cc1ccc(-c2nnc(SCCCN3CC[C@]4(C[C@@H]4c4ccc(C(F)(F)F)cc4)C3)n2C)c(C)n1 the microsomal CLint at 0.5 h, 0.5 µM [1] was 98 µL/min/mg and the microsomal CLint at 0.5 h, 0.5 µM [2] was 299 µL/min/mg.
Cc1ncoc1-c1nnc(SCCCN2CC[C@]3(C[C@H]3c3ccc(C(F)(F)F)cc3)C2)n1C showed a microsomal CLint at 0.5 h, 0.5 µM [1] of 161 µL/min/mg and a microsomal CLint at 0.5 h, 0.5 µM [2] of 22 µL/min/mg.
For Cn1c(SCCCN2CC[C@]3(C[C@@H]3c3ccc(C(F)(F)F)cc3)C2)nnc1-c1cccc(-c2ncco2)c1, the microsomal CLint at 0.5 h, 0.5 µM [1] was 100 µL/min/mg and the microsomal CLint at 0.5 h, 0.5 µM [2] was 447 µL/min/mg.
In the case of Cn1c(SCCCN2CC[C@]3(C[C@@H]3c3ccc(C(F)(F)F)cc3)C2)nnc1-c1ccc(=O)n(C)c1, the Fa [3] is reported as 17%, the bioavailability [4] is reported as 10% and the half-life [5] is reported as 1.9 h. The clearance [6] was 30.2 mL/min/kg, the Vd [7] was 4 L/kg and the microsomal CLint at 0.5 h, 0.5 µM [1] was 16 µL/min/mg. For the same molecule, the microsomal CLint at 0.5 h, 0.5 µM [2] was 41 µL/min/mg, the Kp [8] was 0.4 and the permeability [9] was “Permeable”.
For Cc1ncoc1-c1nnc(SCCCN2CC[C@@]3(C[C@H]3c3ccc(F)cc3F)C2)n1C, the microsomal CLint at 0.5 h, 0.5 µM [1] was 161 µL/min/mg and the microsomal CLint at 0.5 h, 0.5 µM [2] was 53 µL/min/mg.
Cc1ncoc1-c1nnc(SCCCN2CC[C@]3(C[C@@H]3c3ccc(C(F)(F)F)cc3)C2)n1C showed a microsomal CLint at 0.5 h, 0.5 µM [1] of 83 µL/min/mg and a microsomal CLint at 0.5 h, 0.5 µM [2] of 86 µL/min/mg.
With Cc1nc(C(N)=O)ccc1-c1nnc(SCCCN2CC[C@]3(C[C@@H]3c3ccc(C(F)(F)F)cc3)C2)n1C the Fa [3] was 54%, the bioavailability [4] was 39% and the half-life [5] was 4.3 h. The clearance [6] was 21.1 mL/min/kg, the Vd [7] was 5.5 L/kg and the microsomal CLint at 0.5 h, 0.5 µM [1] was 38 µL/min/mg. For the same molecule, the microsomal CLint at 0.5 h, 0.5 µM [2] was 299 µL/min/mg and the Kp [8] was 1.5.
In the case of Cn1c(SCCCN2CC[C@]3(C[C@@H]3c3ccc(C(F)(F)F)cc3)C2)nnc1-c1ccc(-c2ncco2)cc1, the microsomal CLint at 0.5 h, 0.5 µM [1] is reported as 276 µL/min/mg and the microsomal CLint at 0.5 h, 0.5 µM [2] is reported as 352 µL/min/mg.
With Cn1c(SCCCN2CC[C@]3(C[C@@H]3c3ccc(C(F)(F)F)cc3)C2)nnc1C1CCOCC1 the Fa [3] was 57%, the bioavailability [4] was 11% and the half-life [5] was 0.6 h. It also gave a clearance [6] of 87.3 mL/min/kg, a Vd [7] of 3.7 L/kg and a microsomal CLint at 0.5 h, 0.5 µM [1] of 59 µL/min/mg. The microsomal CLint at 0.5 h, 0.5 µM [2] was 34 µL/min/mg, the Kp [8] was 0.3 and the permeability [9] was “Permeable”.
Cn1c(SCCCN2CC[C@]3(C[C@@H]3c3ccc(C(F)(F)F)cc3F)C2)nnc1-c1cccnc1 gave a microsomal CLint at 0.5 h, 0.5 µM [1] of 278 µL/min/mg and a microsomal CLint at 0.5 h, 0.5 µM [2] of 485 µL/min/mg.
In the case of Cn1c(SCCCN2CC[C@]3(C[C@@H]3c3ccc(C(F)(F)F)cc3)C2)nnc1-c1ccc(C(N)=O)nc1, the Fa [3] is reported as 40%, the bioavailability [4] is reported as 26% and the half-life [5] is reported as 2.2 h. The clearance [6] was 19.4 mL/min/kg, the Vd [7] was 3.2 L/kg and the microsomal CLint at 0.5 h, 0.5 µM [1] was 29 µL/min/mg. The microsomal CLint at 0.5 h, 0.5 µM [2] was 106 µL/min/mg.
Cn1c(SCCCN2CC[C@]3(C[C@@H]3c3ccc(C(F)(F)F)cc3)C2)nnc1C1CCCCC1 showed a microsomal CLint at 0.5 h, 0.5 µM [1] of 201 µL/min/mg and a microsomal CLint at 0.5 h, 0.5 µM [2] of 339 µL/min/mg.
Cc1ncoc1-c1nnc(SCCCN2CC[C@@]3(C[C@H]3c3ccc(F)cc3)C2)n1C gave a microsomal CLint at 0.5 h, 0.5 µM [1] of 73 µL/min/mg and a microsomal CLint at 0.5 h, 0.5 µM [2] of 37 µL/min/mg.
Cc1ncccc1-c1nnc(SCCCN2CC[C@]3(C[C@@H]3c3ccc(C(F)(F)F)cc3)C2)n1C gave a microsomal CLint at 0.5 h, 0.5 µM [1] of 103 µL/min/mg and a microsomal CLint at 0.5 h, 0.5 µM [2] of 80 µL/min/mg.
Molecule Cn1c(SCCCN2CC[C@]3(C[C@@H]3c3ccc(C(F)(F)F)cc3)C2)nnc1-c1cccc(C(N)=O)c1 has a microsomal CLint at 0.5 h, 0.5 µM [1] of 92 µL/min/mg and a microsomal CLint at 0.5 h, 0.5 µM [2] of 187 µL/min/mg.
Molecule Cn1c(SCCCN2CC[C@]3(C[C@@H]3c3ccc(C(F)(F)F)cc3)C2)nnc1-c1ccc(CC(N)=O)cc1 has a microsomal CLint at 0.5 h, 0.5 µM [1] of 22 µL/min/mg and a microsomal CLint at 0.5 h, 0.5 µM [2] of 58 µL/min/mg.
Cn1c(SCCCN2CC[C@]3(C[C@@H]3c3ccc(C(F)(F)F)cc3)C2)nnc1C1CCNC(=O)C1 (single isomer, unassigned) showed a microsomal CLint at 0.5 h, 0.5 µM [1] of under 11 µL/min/mg and a microsomal CLint at 0.5 h, 0.5 µM [2] of 25 µL/min/mg.
Work on Cn1c(SCCCN2CC[C@]3(C[C@@H]3c3ccc(C(F)(F)F)cc3)C2)nnc1C1CC2CCC(C1)O2 (single isomer, unassigned; enantiomer 1) yielded a clearance [6] of 80 mL/min/kg, a Vd [7] of 2.6 L/kg and a microsomal CLint at 0.5 h, 0.5 µM [1] of 21.3 µL/min/mg. For the same molecule, the microsomal CLint at 0.5 h, 0.5 µM [2] was 50 µL/min/mg.
Cc1ncoc1-c1nnc(SCCCN2CC[C@]3(C[C@H]3c3ccc(F)cc3C(F)(F)F)C2)n1C (single isomer, unassigned; enantiomer 1) gave a microsomal CLint at 0.5 h, 0.5 µM [1] of 51 µL/min/mg and a microsomal CLint at 0.5 h, 0.5 µM [2] of 65 µL/min/mg.
Molecule Cc1ncoc1-c1nnc(SCCCN2CC[C@@]3(C[C@H]3c3ccc(F)cc3C(F)(F)F)C2)n1C (single isomer, unassigned; enantiomer 2) has a microsomal CLint at 0.5 h, 0.5 µM [1] of 151 µL/min/mg and a microsomal CLint at 0.5 h, 0.5 µM [2] of 320 µL/min/mg.
For Cn1c(SCCCN2CC[C@]3(C[C@@H]3c3ccc(C(F)(F)F)cc3)C2)nnc1C1=CCC(=O)N=C1 (stereo in doubt), the Fa [3] was 1%, the bioavailability [4] was 2% and the half-life [5] was 3.4 h. The clearance [6] was 48 mL/min/kg, the Vd [7] was 9.1 L/kg and the microsomal CLint at 0.5 h, 0.5 µM [1] was 14 µL/min/mg. The microsomal CLint at 0.5 h, 0.5 µM [2] was 28 µL/min/mg and the permeability [9] was “Impermeable”.
